Like-named read-outs stand apart in the source and are kept apart here.
Legend:
MES-SA/Dx5 cell line = experiment: Cytotoxicity, PrestoBlue cell viability assay, MES-SA/Dx5; format: cell-based; conditions: Homo sapiens
Description: (§1) The human uterine sarcoma cell line MES-SA and its doxorubicin resistant counterpart MES-SA/Dx5 were obtained from ATCC (MES-SA: No. CRL-1976™, MES-SA-Dx5: No. CRL-1977™). MES-SA/Dx5 cells express high levels of P-gp, and therefore are multidrug resistant (MDR). Cells were cultured in DMEM supplemented with 10% FBS, 5 mmol/L glutamine and 50 unit/mL penicillin and streptomycin (Life Technologies).
(§2) Cell survival was measured by the PrestoBlue® Cell Viability Reagent (Life Technologies, USA). Cells were seeded in 100 μl medium at a density of 5000 cells/well in 96-well plates; the serially diluted drug was added the following day. Cells were then incubated for 72 hours at 37° C. in 5% CO2; the drug containing medium was removed, and the PrestoBlue® reagent was added according to the manufacturer's instructions. Fluorescence of the cells was measured by a Perkin Elmer EnSpire multimode plate reader or Perkin Elmer Victor X3 microplate reader. Data were background corrected and normalized to untreated cells. Curves were fitted with the help of Prism software using the sigmoidal dose-response model. Curve fit statistics were used to determine IC50 values. Differences between the IC50 values of the respective cell lines were analyzed by two-sided […] unpaired Student's t test and results were considered statistically significant at a P value of <0.05 (*) or 0.01 (**).

MES-SA cell line = experiment: Cytotoxicity, PrestoBlue cell viability assay, parental MES-SA; format: cell-based; conditions: Homo sapiens; parental MES-SA cell line (Table 2a)
Description: as §1, §2

[1] = tested on: MES-SA and multidrug-resistant MES-SA/Dx5 cell line; experiment: Selective toxicity (ratio of IC50 in MES-SA to IC50 in MES-SA/Dx5) and activity index; format: cell-based, human
Excerpt: Compounds having P-gp potentiated MDR-selective activity can be characterized by their inhibitory concentration (IC) with regard to a specific cancer cell line. Usually the IC value is given at a certain percentage ratio of non-inhibited molecules or surviving cells. For example an IC20 value of a compound on a cell line means that at this inhibitory concentration of the compound 80% of the cells are killed whereas 20% of the cells are still viable. A further characteristic of MDR-selective drugs is the selectivity ratio (SR), which is the ratio of the IC value measured in a non-multidrug resistant cell line to (i.e. divided by) the IC value measured in the corresponding transformed, multidrug-resistant cell line. The inverse value, the resistance ratio (RR) is calculated as the ratio of a compound's IC value against a multidrug resistant cell line divided by the parallel IC value of the same compound against a control non-multidrug resistant cell line. The Activity Index (AI) is calculated here as the ratio of the compound's selectivity ratio (SR) and the compound's IC50 value against the resistant cell. The AI reflects the level of simultaneous toxicity and selectivity towards multidrug-resistant cancer cells.
as §1, §2
Selectivity towards multidrug-resistant cells is expressed as the ratio of the IC50 value measured in the parental MES-SA and multidrug-resistant MES-SA/Dx5 cell line (Selectivity Ratio, SR).
A novel characteristic of the compounds presented in this invention is that they exert their selective cytotoxicity at low IC50 values. Simultaneous toxicity and selectivity towards multidrug-resistant cancer cells is reflected by the Activity Index (AI) of the compounds, which is the ratio of the selectivity ratio (SR) and the IC50 value on the resistant cell line.

[2] = tested on: MES-SA and MES-SA/Dx5 cells; experiment: Selective toxicity in the presence of the P-gp inhibitor tariquidar; format: cell-based, human; conditions: selectivity ratio in the presence of tariquidar (1 μM)
Description: In the presence of tariquidar (an inhibitor of P-gp function), the toxicity of the compounds selectively diminishes in multidrug-resistant MES-SA/Dx5 cells, while the toxicity is unchanged against parental MESSA cells, which is reflected by a decrease in the selectivity ratio (SR (TQ)).
To investigate the contribution of P-glycoprotein to the cytotoxic effect of a compound, cell survival was measured in the presence of the P-glycoprotein inhibitor tariquidar (1 μM). Tariquidar (CAS 206873-63-4) can be obtained e.g. from Selleck, Houston, USA.

[3] = tested on: P-gp-expressing MES-SA/Dx5 cells; experiment: P-gp switch assay (Calcein AM); format: cell-based, human; conditions: MES-SA/Dx5, single dose at IC20 (killing 80% of the cells), surviving population at 80% confluence, Calcein AM
Description: One million P-gp-expressing MES-SA/Dx5 cells were plated in a T25 cell culture flask. After 24 hours the compound of interest was added directly to the cells at a concentration corresponding to the IC20 value (killing 80% of the cells). After 5 days the culture media was removed, the cells were washed with PBS and the culture medium was exchanged. Cells were monitored daily and the recovery was recorded. The medium was changed every 5 days until the confluence of the cells reached 80%. At 80% confluence the cells were removed by gentle trypsinization, counted by an automated cell counter and stained with Calcein AM, a cellular dye able to detect the function of P-gp (Homolya 1993). P-gp-positivity was evaluated based on the ability of P-gp-expressing cells to extrude Calcein AM.

[4] = tested on: A431 and A431-B1 cell lines; experiment: Selective toxicity in A431 and A431-B1 cell lines; format: cell-based, human; conditions: A431 versus P-gp-transfected A431-B1
Description: as §2
(§3) Data on selective toxicity (expressed as Selectivity Ratio, SR) in two MDR models engineered by retroviral transfection of P-glycoprotein (A431/A431-B1 and MDCK II/MDCK II B1 cell lines) are presented in Table 3 and Table 4.
(§4) A431 is a human epidermoid carcinoma cell line. Its derivative, the A431-B1 cell line expresses P-gp due to retroviral transfection of the mdr1 gene Türk, D. et al (Türk, D. et al., 2009). MDCK II is a canine kidney cell line. MDCK II B1 was created by inserting the mdr1 gene with transposons [Pape V F S et al. 2015] Both cell express P-gp stably, and show a stable MDR phenotype. Culture conditions were identical as in the case of MES-SA cells.

[5] = tested on: MDCK II and MDCK II B1 cell lines; experiment: Selective toxicity towards MDCK II and MDCK II B1 cell lines; format: cell-based, canine; conditions: MDCK II versus MDCK II B1
Description: as §2, §3, §4

[6] = multidrug-resistant MES-SA/Dx5 cell line (Table 2a), read-out: IC50 (nM) in MES-SA/Dx5 cell line
[7] = MES-SA / MES-SA/Dx5, without tariquidar (Table 5)
[8] = MES-SA/Dx5 (Table 2b), read-out: IC50 (μM) Dx5
[9] = Mes-sa/Dx5 cell line, PrestoBlue assay, 72 hours (Table 1), read-out: IC50

Oc1c(CN2CCCCC2)ccc2ccc(N/N=C/c3ccccn3)nc12 [Example 5, (E/Z)-7-(Piperidin-1-ylmethyl)-2-(2-(pyridine-2-ylmethylene)hydrazinyl)quinolin-8-ol]
IC50 (MES-SA/Dx5 cell line; [6]): 1970 nM
IC50 (MES-SA cell line): 40500 nM
SR [1, 7]: 20.9
SR (TQ) [2]: 1.2
Fraction of P-gp-negative cells (P3) in the population [3]: 67.6%
Fraction of P-gp-positive cells (P4) in the population [3]: 32.40%
melting point: 248 to 250 °C

COc1ccccc1CNCc1cc(Br)c2cccnc2c1O [Example 8, 5-Bromo-7-(((2-methoxybenzyl)amino)methyl)quinolin-8-ol]
IC50 (MES-SA/Dx5 cell line; [8]): 160 nM
IC50 (MES-SA/Dx5 cell line; [9]): 161 nM
SR ([1]; MES-SA / MES-SA/Dx5 (Table 2b)): 13.5
melting point: 135 to 137 °C

C/C(=N\Nc1ccc2ccc(CN3CCCCC3)c(O)c2n1)c1ccccc1O [Example 4, (E/Z)-2-(2-(1-(2-Hydroxyphenyl)ethylidene)hydrazinyl)-7-(piperidin-1-ylmethyl)quinolin-8-ol]
IC50 (MES-SA/Dx5 cell line; [8]): 160 nM
IC50 (MES-SA/Dx5 cell line; [9]): 160 nM
SR ([1]; MES-SA / MES-SA/Dx5 (Table 2b)): 5.9
Selectivity Ratio (SR) (A431/A431-B1) [4]: 11.7
melting point: 184 to 187 °C

COc1ccc(CNCc2cc(S(C)(=O)=O)c3cccnc3c2O)c(OC)c1 [Example 37, 7-(((2,4-Dimethoxybenzyl)amino)methyl)-5-(methylsulfonyl)quinolin-8-ol]
Selectivity Ratio (SR) (A431/A431-B1) [4]: 16.7
Selectivity Ratio (SR) (MDCK II/MDCK II B1) [5]: 8.9

Oc1c(C2NCCc3sccc32)ccc2cccnc12 (stereo not shown) [Example 18, 7-(4,5,6,7-Tetrahydrothieno[3,2-c]pyridin-4-yl)quinolin-8-ol]
IC50 (MES-SA/Dx5 cell line; [9]): 157 nM
Fraction of P-gp-negative cells (P3) in the population [3]: 80.6%
Fraction of P-gp-positive cells (P4) in the population [3]: 19.40%

O=C1NC2CCCCC2NC1c1cc(Cl)c2cccnc2c1O (mixture of isomers) [Example 22, (3R,4aS,8aS)-3-(5-Chloro-8-hydroxyquinolin-7-yl)octahydroquinoxalin-2(1H)-one and (3S,4aS,8aS)-3-(5-chloro-8-hydroxyquinolin-7-yl)octahydroquinoxalin-2(1H)-one]
Selectivity Ratio (SR) (A431/A431-B1) [4]: 18.8

COc1cc2c(cc1OC)C(c1cc(Cl)c3cccnc3c1O)NCC2 (stereo not shown) [Example 16, 5-Chloro-7-(6,7-dimethoxy-1,2,3,4-tetrahydroisoquinolin-1-yl)quinolin-8-ol]
SR [1, 7]: 10.3
Selectivity Ratio (SR) (A431/A431-B1) [4]: 24.7
SR (TQ) [2]: 0.9

COc1ccc(CNCc2cc([N+](=O)[O-])c3cccnc3c2O)c(OC)c1 [Example 28, 7-(((2,4-Dimethoxybenzyl)amino)methyl)-5-nitroquinolin-8-ol]
IC50 (MES-SA/Dx5 cell line; [8]): 440 nM
IC50 (MES-SA/Dx5 cell line; [6]): 442 nM
IC50 (MES-SA cell line): 8650 nM
SR ([1]; MES-SA / MES-SA/Dx5 (Table 2b)): 19.7
SR [1, 7]: 19.7
SR (TQ) [2]: 1.6
melting point: 206 to 209 °C

Oc1c(C2NCCc3ccccc32)cc(Br)c2cccnc12 (stereo not shown) [Example 14, 5-Bromo-7-(1,2,3,4-tetrahydroisoquinolin-1-yl)quinolin-8-ol]
IC50 (MES-SA/Dx5 cell line; [8]): 130 nM
IC50 (MES-SA/Dx5 cell line; [9]): 130 nM
SR ([1]; MES-SA / MES-SA/Dx5 (Table 2b)): 7.8
Selectivity Ratio (SR) (A431/A431-B1) [4]: 13.7

O=[N+]([O-])c1cc(C2NCCc3sccc32)c(O)c2ncccc12 (stereo not shown) [Example 19, 5-Nitro-7-(4,5,6,7-tetrahydrothieno[3,2-c]pyridin-4-yl)quinolin-8-ol]
Selectivity Ratio (SR) (A431/A431-B1) [4]: 24.7

Cl.Oc1c(CNCc2ccccc2F)cc(Cl)c2cccnc12 [Example 12, 5-Chloro-7-({[(2-fluorophenyl)methyl]amino}methyl)quinolin-8-ol Hydrochloride]
Selectivity Ratio (SR) (MDCK II/MDCK II B1) [5]: 8.3

COc1ccc(CNCc2cc(Cl)c3cccnc3c2O)cc1 [Example 7, 5-Chloro-7-(((4-methoxybenzyl)amino)methyl)quinolin-8-ol]
SR [1, 7]: 13.4
Selectivity Ratio (SR) (A431/A431-B1) [4]: 12.6
SR (TQ) [2]: 1.3
melting point: 125 to 127 °C

Cc1ccc2ccc(C3NCCc4sccc43)c(O)c2n1 (stereo not shown) [Example 20]
Selectivity Ratio (SR) (A431/A431-B1) [4]: 13.2
Selectivity Ratio (SR) (MDCK II/MDCK II B1) [5]: 10.0

COc1ccc(CNCc2cc(Br)c3cccnc3c2O)cc1 [Example 10, 5-Bromo-7-(((4-methoxybenzyl)amino)methyl)quinolin-8-ol]
Selectivity Ratio (SR) (A431/A431-B1) [4]: 11.2
melting point: 129 to 132 °C

Oc1c(C2NCCc3ccccc32)cc(Cl)c2cccnc12 (stereo not shown) [Example 13, 5-Chloro-7-(1,2,3,4-tetrahydroisoquinolin-1-yl)quinolin-8-ol]
IC50 (MES-SA/Dx5 cell line; [9]): 127 nM
Fraction of P-gp-negative cells (P3) in the population [3]: 88.00%
Fraction of P-gp-positive cells (P4) in the population [3]: 12.00%

C/C(=N\Nc1ccc2cccc(O)c2n1)c1ccccc1O [Example 1, (E/Z)-2-(2-(1-(2-Hydroxyphenyl)ethylidene)hydrazinyl)quinolin-8-ol]
melting point: 225 to 228 °C

O=[N+]([O-])c1cc(C2NCCc3ccccc32)c(O)c2ncccc12 (stereo not shown) [Example 15, 5-Nitro-7-(1,2,3,4-tetrahydroisoquinolin-1-yl)quinolin-8-ol]
IC50 (MES-SA/Dx5 cell line; [8]): 590 nM
IC50 (MES-SA/Dx5 cell line; [6]): 594 nM
IC50 (MES-SA cell line): 12400 nM
SR ([1]; MES-SA / MES-SA/Dx5 (Table 2b)): 23.8
SR [1, 7]: 23.8
SR (TQ) [2]: 1.4
Fraction of P-gp-negative cells (P3) in the population [3]: 67.2%
Fraction of P-gp-positive cells (P4) in the population [3]: 32.80%

Oc1c(CNC2CCCCC2)cc(Cl)c2cccnc12 [Example 6, 5-Chloro-7-((cyclohexylamino)methyl)quinolin-8-ol]
Selectivity Ratio (SR) (A431/A431-B1) [4]: 11.5
melting point: 123 to 125 °C

COc1ccccc1CNCc1cc([N+](=O)[O-])c2cccnc2c1O [Example 29, 7-(((2-Methoxybenzyl)amino)methyl)-5-nitroquinolin-8-ol]
IC50 (MES-SA/Dx5 cell line; [6]): 2090 nM
IC50 (MES-SA cell line): 40600 nM
Selectivity Ratio (SR) ([1]; IC50 in MES-SA divided by IC50 in MES-SA/Dx5 (Table 2a)): 19.2
Selectivity Ratio (SR) (A431/A431-B1) [4]: 25.1
Selectivity Ratio (SR) (MDCK II/MDCK II B1) [5]: 17.1
melting point: 199 to 203 °C

C/C(=N\Nc1ccc2cccc(O)c2n1)c1ccccn1 [Example 2, (E/Z)-2-(2-(1-(Pyridine-2-yl)ethylidene)hydrazinyl)quinolin-8-ol]
melting point: 213 to 214 °C
